# Data: ChEMBL document CHEMBL3507680, “University of Dundee, Gates Library screen for HepG2 cell viability”
# Test: Human HepG2 cell viability assay in 384 well format
# Format: toxicity, cell-based
# Design: dose 125 nL, time 70.5 hour; concentration not given beside the values
# Details: HepG2 cells, read-out: Inhibition
row,Structure (SMILES),cytotoxicity at 70.5 h
1,CCn1/c(=N/C(=O)CSCC(=O)Nc2nccs2)sc2ccccc21,-0.443%
2,Cc1nnc(NC(=O)NCc2ccc(N3CCNC(=O)C3)cc2)s1,-3.76%
3,CCN1CC(CN(C)Cc2nc(-c3cccc(C)c3)oc2C)CC1=O (stereo unspecified),28.2%
4,COc1ccc(C(=O)n2nc(C)c(C)c2C)cc1,-2.07%
5,COc1c(C2CCCN2C(=O)c2c(C)noc2C)c(C)nn1C (stereo unspecified),-8.08%
6,CN1C(=O)C2(CCN(Cc3nccn3C)CC2)c2ccccc21,-4.36%
7,CC(C)Nc1ccnc(N2Cc3cnc(C(C)(C)C)nc3C2)n1,17.3%
8,N#Cc1nccnc1N1CCN(CCOCc2ccccc2)CC1,16.9%
9,Cn1cc(C2CCCN2C(=O)c2cn(-c3ccccc3)nn2)cn1 (stereo unspecified),-0.276%
10,CC1CCN(Cn2nc(-c3ccc(F)cc3)oc2=O)CC1,18.6%
11,CN(C)CCN(C)C1CCCN(C(=O)c2ccc(Cn3ccnc3)o2)C1 (stereo unspecified),-9.94%
12,CC(C)Sc1ccc(N2CCN(Cc3ccccn3)CC2)nn1,-12.7%
13,CCn1cnnc1C1CCN(C(=O)c2ccc(Cl)cc2OC)CC1,-9.75%
14,COc1cc(N2C[C@H](C(=O)NC3CC3)[C@@H]3CCO[C@@H]3C2)ncn1,-7.61%
15,CCN(CC)S(=O)(=O)N1CCCC1c1nnc2n1CCN(C)CC2 (stereo unspecified),-10.9%
16,CN(Cc1nccn1C)C(=O)C1COCC(=O)N1Cc1ccccc1 (stereo unspecified),30.1%
17,Cc1ccc(-n2cccn2)cc1S(=O)(=O)N1C[C@H](C2CC2)[C@@H](N)C1,11.6%
18,O=C(NC1CCC1)[C@@H]1CCO[C@@H]2CCN(C3CCCC3)C[C@@H]21,1.69%
19,CSCC(=O)N(C)Cc1ccc(N(C)C)cc1,-6.63%

row,Structure (SMILES),cytotoxicity at 70.5 h
1,CN1CCOC(C(=O)Nc2nc(-c3ccccc3F)n[nH]2)C1 (stereo unspecified),-6.97%
2,CC(C)c1cc(N(C)Cc2cc(C3CC3)on2)n2nccc2n1,-8.41%
3,CCCS(=O)(=O)NCC(O)c1c(Cl)cccc1Cl (stereo unspecified),-0.597%
4,COCC(O)CN(C)c1cc(C(F)(F)F)nc(-c2cccnc2)n1 (stereo unspecified),-1.69%
5,CN(C)C(=O)CN(C)C(=O)c1cnc(Cc2ccc(F)cc2)s1,-0.843%
6,O[C@@H]1CN(c2cnc3ccccc3n2)CC[C@H]1c1ccc2c(c1)OCO2,21%
7,COc1ccc(CCN(C)C2CCCN(Cc3noc(C)n3)C2)cc1 (stereo unspecified),25%
8,COCCC(=O)N1CCCC(CCc2ccc(F)c(F)c2)C1 (stereo unspecified),-9.08%
9,CCn1ccc(-c2cc(NCCCOc3cccc(C)c3)nc(C)n2)n1,-6.25%
10,Cc1cc(C(=O)N2C[C@H](C(C)C)[C@@H](N(C)C)C2)cs1,-2.9%
11,CC(C)[C@H]1CN(c2cnccn2)C[C@@H]1NC(=O)C1(C#N)CCOCC1,-6.21%
12,O=C(c1csc(-c2cnccn2)n1)N1CCCC1Cn1cccn1 (stereo unspecified),2.23%
13,CN(C)CC1CN(Cc2coc(-c3cccs3)n2)CCO1 (stereo unspecified),1.06%
14,Cc1cc(C2CCCN2C(=O)c2ccc(OCC(N)=O)cc2)no1 (stereo unspecified),-11.5%
15,Fc1cccc(-c2nc(CN3CCCC3Cn3cncn3)co2)c1 (stereo unspecified),8.65%
16,CCc1cc(=O)n(CC(=O)NCC2CCCO2)c(-c2cccc(F)c2)n1 (stereo unspecified),2.39%
17,Cc1ccc(S(=O)(=O)N(CCO)C2CC2)cc1N(C)C,2.04%
18,CN(Cc1nnc2n1CCC2)C(=O)c1ccc2c(c1)OCO2,-11.9%
19,Cc1nc(NCC2CCOCC2)cc(C2CCN2S(C)(=O)=O)n1 (stereo unspecified),-1.73%

row,Structure (SMILES),cytotoxicity at 70.5 h
1,Cc1cc(C)c2cc(CNCC3CCCO3)c3nn(C)c(=O)n3c2c1 (stereo unspecified),-6.37%
2,CCCN1CCCC1c1nc(Cc2ccc(F)cc2)no1 (stereo unspecified),15.1%
3,CC(NC(=O)COc1cccc[n+]1[O-])C1CC1 (stereo unspecified),-4.57%
4,NC(=O)C1CN(C(=O)Nc2ccccc2Oc2ccccc2Cl)CCO1 (stereo unspecified),-6.93%
5,CCc1ncc(C(=O)NCCNc2ncnc3sccc23)s1,18.2%
6,CC(C)NC(=O)[C@@H]1CN(Cc2ccc3c(c2)OCO3)C[C@H]2OCC[C@H]21,-2.81%
7,O=C(CN1C(=O)CCCc2sccc21)NC1CCc2nccn2C1 (stereo unspecified),-1.68%
8,CC(C)CC(=O)N1CCN(C(=O)N(C)C)CC2(CC(=O)N(C)C2)C1 (stereo unspecified),0.114%
9,COC(=O)N(C)CCCC(=O)Nc1[nH]nc(-c2ccncc2)c1C,-2.11%
10,CN1CCC(c2cccc(Cc3ccc(F)cc3)n2)CC1,-13.1%
11,CC(CC#N)N(C)Cc1ccc(F)cc1F (stereo unspecified),-6.44%
12,Cc1nc(C(C)(C)NCc2ncc(C(C)C)o2)sc1C,-5.11%
13,CC(C)NC(=O)c1cc(-c2ccc(S(C)(=O)=O)cc2)c2cnn(C)c2n1,-0.443%
14,CNC(=O)[C@@H]1C[C@H](N)CN1Cc1cc2cc(OC)ccc2nc1O,-8.56%
15,Cc1ccc(CNc2n[nH]c(C)n2)cc1,-10.9%
16,CCN(Cc1cccc(Cl)c1)Cn1nc(C)c2c(C)onc2c1=O,25.1%
17,Cc1cnn(CCC(=O)N2CCC3(CCC(=O)N(CC4CC4)C3)CC2)c1,-6.95%
18,CNC(=O)[C@@]12CCO[C@@H]1CCN(S(=O)(=O)c1ccccc1C)C2,-10.5%
